{"source": "patent US20100190846A1", "about": "“MICROBICIDAL AGENT AND MICROBICIDAL COMPOSITION” (priority 2006, published 2010)", "key": {"[1]": {"test": "Solubility in DMSO observed during sample preparation", "type": "physicochemical", "conditions": "30% DMSO; 40% DMSO used instead", "description": "First, 400 mg of sample was dissolved in 1 mL of DMSO to prepare 400 mg/mL sample solution. Then 0.5 mL of this 400 mg/mL sample solution was diluted 2-fold to prepare 200 mg/mL sample solution. In the same manner, sample solutions of 100 mg/mL, 50.0 mg/mL, and 25.0 mg/mL were prepared. In addition, 300 mg/mL sample solution was prepared. Thereafter, 0.2 mL of these sample solutions each was mixed with 19.8 mL of BHI (Brain Heart Infusion Agar, Becton Dickinson, MD) medium, thereby preparing agar plates having the sample concentration of 4.0 mg/mL, 3.0 mg/mL, 2.0 mg/mL, 1.0 mg/mL, 0.5 mg/mL, and 0.25 mg/mL in dishes. […] Sterilized water was used for dissolving catechin, because catechin was insoluble in DMSO.\nFirst, 4 mg of 5,7,4′-trihydroxy-3′,5′-dimethoxyflavone sample was dissolved in 200 μL to prepare 20 mg/mL sample solution. To 100 μL of this 20 mg/mL sample solution, 100 μL of sterilized water was added to prepare 200 μL of 10 mg/mL sample solution. To the solution, 60 μL DMSO and 140 μL of sterilized water were added to prepare 400 μL of 5.0 mg/mL sample solution. DMSO was used in the concentration of 40%, because the sample precipitated from 30% DMSO. To 350 μL of 5.0 mg/mL sample solution, 140 μL DMSO and 210 μL of sterilized water were added to prepare 700 μL of 2.5 mg/mL sample solution. In the same manner, 1.25 mg/mL and 0.625 mg/mL sample solutions were prepared. […]"}, "Salmonella sp.": {"tested_on": "Salmonella sp.", "test": "Paper disk method microbicidal test", "type": "cell-based", "conditions": "for size of the inhibition ring: 0 mg/mL control: 12.35 (flavone, 40% DMSO), — (catechin)", "description": "(§1) As microbicidal test method for 5,7,4′-trihydroxy-3′,5′-dimethoxyflavone, the paper disk method was employed, by which method the microbicidal activity can be judged even in cases where a solvent has some influences.\n(§2) In paper disk method, sample solutions having various sample concentration are prepared, and the sample solution was absorbed in a special paper disk, followed by drying the paper disk. Onto the plate which is made by mixing a prepared bacterial suspension with agar medium, the paper disks are placed. If the sample has a microbicidal activity, the inhibition ring which indicates the inhibition of bacterial growth is formed such that the center of the ring is coincident with the paper disk. The degree of a microbicidal activity is judged based on the size of the inhibition ring.\n(§3) First, 4 mg of 5,7,4′-trihydroxy-3′,5′-dimethoxyflavone sample was dissolved in 200 μL to prepare 20 mg/mL sample solution. To 100 μL of this 20 mg/mL sample solution, 100 μL of sterilized water was added to prepare 200 μL of 10 mg/mL sample solution. To the solution, 60 μL DMSO and 140 μL of sterilized water were added to prepare 400 μL of 5.0 mg/mL sample solution. DMSO was used in the concentration of 40%, because the sample precipitated from 30% DMSO. To 350 μL of 5.0 mg/mL sample solution, 140 μL DMSO and 210 μL of sterilized water were added to prepare 700 μL of 2.5 mg/mL sample solution. In the same manner, 1.25 mg/mL and 0.625 mg/mL sample solutions were prepared. As a control, a solution containing 40% DMSO and 60% sterilized water was prepared. […] In a paper disk (8.12 mm diameter), 70 μL of these solutions each was absorbed, and the paper disks were dried for a day.\n(§4) As test bacteria, Staphylococcus aureus, Salmonella sp., Yersinia enterocolitica, Pseudomonas aeruginosa, and Candida sp. were used. These bacteria were mixed with 2 mL of sterilized water to prepare bacterial suspensions having turbidity 1 (10^8/mL). The plate agar was made by mixing 0.2 mL of the bacterial suspension with 19.8 mL of BHI medium. The dried paper disk was placed onto the plate agar, and the plate was incubated in an incubator at 37° C., followed by assessing the activity. In the Table, (-) represents that no microbicidal activity was observed."}, "Candida sp.": {"tested_on": "Candida sp.", "test": "Paper disk method microbicidal test", "type": "cell-based", "conditions": "0 mg/mL control: 11.86 (flavone, 40% DMSO), — (catechin)", "description": "as §1, §2, §3, §4"}, "Pseudomonas aeruginosa": {"tested_on": "Pseudomonas aeruginosa", "test": "Paper disk method microbicidal test", "type": "cell-based", "conditions": "for size of the inhibition ring: 0 mg/mL control: 12.33 (flavone, 40% DMSO), — (catechin)", "description": "as §1, §2, §3, §4"}, "Yersinia enterocolitica": {"tested_on": "Yersinia enterocolitica", "test": "Paper disk method microbicidal test", "type": "cell-based", "conditions": "0 mg/mL control: 15.65 (flavone, 40% DMSO), — (catechin)", "description": "as §1, §2, §3, §4"}, "[2]": {"conditions": "0.625 mg/mL solution on 8.12 mm paper disk"}, "[3]": {"conditions": "1.25 mg/mL solution on 8.12 mm paper disk"}, "[4]": {"conditions": "2.5 mg/mL solution on 8.12 mm paper disk"}}, "note": "“Also recorded” adds a separate entry of the source.", "data": [{"smiles": "COc1cc(-c2cc(=O)c3c(O)cc(O)cc3o2)cc(OC)c1O", "note": "[5,7,4′-Trihydroxy-3′,5′-Dimethoxyflavone, 5,7,4′-trihydroxy-3′,5′-dimethoxyflavone]", "values": [{"measurement": "solubility in aqueous DMSO", "setting": "[1]", "result": "precipitated"}, {"measurement": "size of the inhibition ring", "setting": "Salmonella sp.; [2]", "result": 12.35}, {"measurement": "size of the inhibition ring", "setting": "Salmonella sp.; [3]", "result": 13.82}, {"measurement": "size of the inhibition ring", "setting": "Salmonella sp.; [4]", "result": 16.65}, {"measurement": "microbicidal activity (in words)", "setting": "Salmonella sp.; paper disk method", "result": "had a microbicidal activity; also recorded: very strong even compared to catechin"}, {"measurement": "size of the inhibition ring", "setting": "Candida sp.; [2]", "result": 11.86}, {"measurement": "size of the inhibition ring", "setting": "Candida sp.; [3]", "result": 12.30}, {"measurement": "size of the inhibition ring", "setting": "Candida sp.; [4]", "result": 11.90}, {"measurement": "size of the inhibition ring", "setting": "Pseudomonas aeruginosa; [2]", "result": 15.46}, {"measurement": "size of the inhibition ring", "setting": "Pseudomonas aeruginosa; [3]", "result": 18.54}, {"measurement": "size of the inhibition ring", "setting": "Pseudomonas aeruginosa; [4]", "result": 19.20}, {"measurement": "microbicidal activity (in words)", "setting": "Pseudomonas aeruginosa; paper disk method", "result": "had a microbicidal activity; also recorded: very strong even compared to catechin"}, {"measurement": "size of the inhibition ring", "setting": "Yersinia enterocolitica; [2]", "result": 15.67}, {"measurement": "size of the inhibition ring", "setting": "Yersinia enterocolitica; [3]", "result": 15.76}, {"measurement": "size of the inhibition ring", "setting": "Yersinia enterocolitica; [4]", "result": 15.76}]}]}
